Measurements: BindingDB's records for PubMed 33650861 (Sichuan University, 2021)
pIC50: −log10 of the molar value.

Test: Inhibition of BET (unknown origin)

SMILES: Cc1sc2c(c1C)C(c1ccc(Cl)cc1)=N[C@@H](CC(=O)OC(C)(C)C)c1nnc(C)n1-2
- pIC50: 6.30
